In ChEMBL document CHEMBL1139665, “Synthesis, X-ray crystallographic analysis, and antitumor activity of N-(benzothiazole-2-yl)-1-(fluorophenyl)-O,O-dialkyl-alpha-aminophosphonates” (2006):

Tests used:
[1] = system: PC-3; test: Antiproliferative activity against PC3 cells at 1 uM by MTT assay after 72 hrs; type: functional; settings: Homo sapiens, PC-3, 72 h
[2] = system: PC-3; test: Antiproliferative activity against PC3 cells at 10 uM by MTT assay after 72 hrs; type: functional; settings: Homo sapiens, PC-3, 72 h
[3] = system: PC-3; test: Antiproliferative activity against PC3 cells at 5 uM by MTT assay after 72 hrs; type: functional; settings: Homo sapiens, PC-3, 72 h
[4] = system: A-431; test: Antiproliferative activity against A431 cells at 1 uM by MTT assay after 72 hrs; type: functional; settings: Homo sapiens, A-431, 72 h
[5] = Antiproliferative activity against Bcap37 cells at 1 uM by MTT assay after 72 hrs; type: functional, Homo sapiens
[6] = system: A-375; test: Antiproliferative activity against A375 cells at 10 uM by MTT assay after 72 hrs; type: functional; settings: Homo sapiens, A-375, 72 h
[7] = system: A-431; test: Antiproliferative activity against A431 cells at 5 uM by MTT assay after 72 hrs; type: functional; settings: Homo sapiens, A-431, 72 h
[8] = Antiproliferative activity against Bcap37 cells at 5 uM by MTT assay after 72 hrs; type: functional, Homo sapiens
[9] = Antiproliferative activity against Bcap37 cells at 10 uM by MTT assay after 72 hrs; type: functional, Homo sapiens
[10] = system: A-375; test: Antiproliferative activity against A375 cells at 1 uM by MTT assay after 72 hrs; type: functional; settings: Homo sapiens, A-375, 72 h
[11] = system: A-375; test: Antiproliferative activity against A375 cells at 5 uM by MTT assay after 72 hrs; type: functional; settings: Homo sapiens, A-375, 72 h
[12] = system: A-431; test: Antiproliferative activity against A431 cells at 10 uM by MTT assay after 72 hrs; type: functional; settings: Homo sapiens, A-431, 72 h

## CCCOP(=O)(OCCC)C(Nc1nc2c(C)cccc2s1)c1ccccc1F (stereo unspecified)
[1]
  inhibition at 1 µM: 21.7%
[2]
  inhibition at 10 µM: 43.3%
[3]
  inhibition at 5 µM: 29.4%
[4]
  inhibition at 1 µM: 15.9%
[5]
  inhibition at 1 µM: -18.9%
[6]
  inhibition at 10 µM: 4.3%
[7]
  inhibition at 5 µM: 27.3%
[8]
  inhibition at 5 µM: 0.8%
[9]
  inhibition at 10 µM: 21.7%
[10]
  inhibition at 1 µM: -0.2%
[11]
  inhibition at 5 µM: 4.8%
[12]
  inhibition at 10 µM: 31.7%

## COc1ccc2nc(NC(c3ccccc3F)P(=O)(OC)OC)sc2c1 (stereo unspecified)
[1]
  inhibition at 1 µM: 21.4%
[2]
  inhibition at 10 µM: 33.3%
[3]
  inhibition at 5 µM: 26.6%
[4]
  inhibition at 1 µM: 1.9%
[5]
  inhibition at 1 µM: 11.9%
[6]
  inhibition at 10 µM: 11.4%
[7]
  inhibition at 5 µM: 7.9%
[8]
  inhibition at 5 µM: 17.8%
[9]
  inhibition at 10 µM: 25.1%
[10]
  inhibition at 1 µM: 4.3%
[11]
  inhibition at 5 µM: 10.1%
[12]
  inhibition at 10 µM: 8.64%

## CCOP(=O)(OCC)C(Nc1nc2c(C)cccc2s1)c1ccc(C(F)(F)F)cc1 (stereo unspecified)
[1]
  inhibition at 1 µM: 12.6%
[2]
  inhibition at 10 µM: 49.3%
[3]
  inhibition at 5 µM: 13.5%
[4]
  inhibition at 1 µM: 0.36%
[5]
  inhibition at 1 µM: -5.2%
[6]
  inhibition at 10 µM: 14.2%
[7]
  inhibition at 5 µM: 2.06%
[8]
  inhibition at 5 µM: 9.8%
[9]
  inhibition at 10 µM: 16.7%
[10]
  inhibition at 1 µM: -10.2%
[11]
  inhibition at 5 µM: 1.6%
[12]
  inhibition at 10 µM: 16.9%

## CCCCOP(=O)(OCCCC)C(Nc1nc2ccc(OC)cc2s1)c1ccccc1F (stereo unspecified)
[1]
  inhibition at 1 µM: -6.6%
[2]
  inhibition at 10 µM: 13.2%
[3]
  inhibition at 5 µM: 5.3%
[4]
  inhibition at 1 µM: -3.7%
[5]
  inhibition at 1 µM: 23.6%
[6]
  inhibition at 10 µM: 17.4%
[7]
  inhibition at 5 µM: 5.4%
[8]
  inhibition at 5 µM: 38.2%
[9]
  inhibition at 10 µM: 44.2%
[10]
  inhibition at 1 µM: -6.2%
[11]
  inhibition at 5 µM: 3.5%
[12]
  inhibition at 10 µM: 28.8%

## CCOP(=O)(OCC)C(Nc1nc2ccc(OC)cc2s1)c1ccc(F)cc1 (stereo unspecified)
[1]
  inhibition at 1 µM: 32.1%
[2]
  inhibition at 10 µM: 49.5%
[3]
  inhibition at 5 µM: 41%
[4]
  inhibition at 1 µM: 11.2%
[5]
  inhibition at 1 µM: 10%
[6]
  inhibition at 10 µM: 34.5%
[7]
  inhibition at 5 µM: 20.9%
[8]
  inhibition at 5 µM: 39%
[9]
  inhibition at 10 µM: 49.9%
[10]
  inhibition at 1 µM: 8%
[11]
  inhibition at 5 µM: 10.9%
[12]
  inhibition at 10 µM: 31.2%

## CCCCOP(=O)(OCCCC)C(Nc1nc2c(C)cccc2s1)c1ccc(C(F)(F)F)cc1 (stereo unspecified)
[1]
  inhibition at 1 µM: 5%
[2]
  inhibition at 10 µM: 36%
[3]
  inhibition at 5 µM: 31.6%
[4]
  inhibition at 1 µM: 37.7%
[5]
  inhibition at 1 µM: 0.1%
[6]
  inhibition at 10 µM: 31.5%
[7]
  inhibition at 5 µM: 40.8%
[8]
  inhibition at 5 µM: 9.2%
[9]
  inhibition at 10 µM: 20.3%
[10]
  inhibition at 1 µM: -3.2%
[11]
  inhibition at 5 µM: 21.6%
[12]
  inhibition at 10 µM: 57.4%

## CCOP(=O)(OCC)C(Nc1nc2ccc(OC)cc2s1)c1ccccc1F (stereo unspecified)
[1]
  inhibition at 1 µM: 16.8%
[2]
  inhibition at 10 µM: 38.9%
[3]
  inhibition at 5 µM: 22.5%
[4]
  inhibition at 1 µM: 4.5%
[5]
  inhibition at 1 µM: 20.5%
[6]
  inhibition at 10 µM: 15.7%
[7]
  inhibition at 5 µM: 12.3%
[8]
  inhibition at 5 µM: 34.5%
[9]
  inhibition at 10 µM: 49.4%
[10]
  inhibition at 1 µM: 7.5%
[11]
  inhibition at 5 µM: 7.9%
[12]
  inhibition at 10 µM: 22.1%

## CCCOP(=O)(OCCC)C(Nc1nc2ccc(OC)cc2s1)c1ccccc1F (stereo unspecified)
[1]
  inhibition at 1 µM: 5%
[2]
  inhibition at 10 µM: 28.7%
[3]
  inhibition at 5 µM: 15.8%
[4]
  inhibition at 1 µM: 35.3%
[5]
  inhibition at 1 µM: 21.3%
[6]
  inhibition at 10 µM: 23.8%
[7]
  inhibition at 5 µM: 49.2%
[8]
  inhibition at 5 µM: 25.1%
[9]
  inhibition at 10 µM: 27.1%
[10]
  inhibition at 1 µM: 10.3%
[11]
  inhibition at 5 µM: 13.9%
[12]
  inhibition at 10 µM: 58.1%

## Cc1cccc2sc(NC(c3ccc(C(F)(F)F)cc3)P(=O)(OC(C)C)OC(C)C)nc12 (stereo unspecified)
[1]
  inhibition at 1 µM: 6.3%
[2]
  inhibition at 10 µM: 25.9%
[3]
  inhibition at 5 µM: 15.3%
[4]
  inhibition at 1 µM: 17.3%
[5]
  inhibition at 1 µM: -0.7%
[6]
  inhibition at 10 µM: 9.1%
[7]
  inhibition at 5 µM: 20.5%
[8]
  inhibition at 5 µM: 11.2%
[9]
  inhibition at 10 µM: 22.7%
[10]
  inhibition at 1 µM: -1.3%
[11]
  inhibition at 5 µM: 8.6%
[12]
  inhibition at 10 µM: 29.5%

## CCCCOP(=O)(OCCCC)C(Nc1nc2c(C)cccc2s1)c1ccccc1F (stereo unspecified)
[1]
  inhibition at 1 µM: 52.1%
[2]
  inhibition at 10 µM: 89.1%
[3]
  inhibition at 5 µM: 86%
[4]
  inhibition at 1 µM: 32.1%
[5]
  inhibition at 1 µM: 10%
[6]
  inhibition at 10 µM: 32.1%
[7]
  inhibition at 5 µM: 49%
[8]
  inhibition at 5 µM: 29%
[9]
  inhibition at 10 µM: 38.1%
[10]
  inhibition at 1 µM: 11.2%
[11]
  inhibition at 5 µM: 25.6%
[12]
  inhibition at 10 µM: 72.1%

## CCOP(=O)(OCC)C(Nc1nc2c(C)cccc2s1)c1ccccc1F (stereo unspecified)
[1]
  inhibition at 1 µM: 3.51%
[2]
  inhibition at 10 µM: 41.9%
[3]
  inhibition at 5 µM: 22.9%
[4]
  inhibition at 1 µM: 17.7%
[5]
  inhibition at 1 µM: 35.8%
[6]
  inhibition at 10 µM: 9.2%
[7]
  inhibition at 5 µM: 23.3%
[8]
  inhibition at 5 µM: 42.6%
[9]
  inhibition at 10 µM: 58.9%
[10]
  inhibition at 1 µM: -13.9%
[11]
  inhibition at 5 µM: -6.1%
[12]
  inhibition at 10 µM: 35.3%

## COc1ccc2nc(NC(c3ccccc3F)P(=O)(OC(C)C)OC(C)C)sc2c1 (stereo unspecified)
[1]
  inhibition at 1 µM: -8.5%
[2]
  inhibition at 10 µM: 18.5%
[3]
  inhibition at 5 µM: 2.1%
[4]
  inhibition at 1 µM: -7.4%
[5]
  inhibition at 1 µM: 39.7%
[6]
  inhibition at 10 µM: 2.8%
[7]
  inhibition at 5 µM: 7.5%
[8]
  inhibition at 5 µM: 43.2%
[9]
  inhibition at 10 µM: 50.4%
[10]
  inhibition at 1 µM: -4.3%
[11]
  inhibition at 5 µM: 1.7%
[12]
  inhibition at 10 µM: 16.7%

## COP(=O)(OC)C(Nc1nc2c(C)cccc2s1)c1ccc(C(F)(F)F)cc1 (stereo unspecified)
[1]
  inhibition at 1 µM: 4%
[2]
  inhibition at 10 µM: 8.9%
[3]
  inhibition at 5 µM: 4.6%
[4]
  inhibition at 1 µM: 22.1%
[5]
  inhibition at 1 µM: -13.2%
[6]
  inhibition at 10 µM: 20.8%
[7]
  inhibition at 5 µM: 26%
[8]
  inhibition at 5 µM: -0.8%
[9]
  inhibition at 10 µM: 2.5%
[10]
  inhibition at 1 µM: 1.8%
[11]
  inhibition at 5 µM: 19.2%
[12]
  inhibition at 10 µM: 47.3%
